We go through one sequence from patent publication CN110590914A, “一种抑制和消除幽门螺杆菌生物膜生成的蜂蜜和多肽组合物” (Anhui University of Science and Technology, priority 2019, dated 2019).

This experiment deals with 幽门螺杆菌SS1菌株. In words: Inhibition of Helicobacter pylori biofilm formation (crystal violet staining, A595). The class given is cell-based. As to conditions: peptide 5, 10, 20, 40, 80μg/mL (Fig. 1).

Ends that are not written are not given here.

With KRIVQRIKDIKP [实施例4], the “Concentration dependence of inhibition of biofilm formation” value was “随着多肽的浓度增大，对生物膜生成的抑制率不断增加”.
